In ChEMBL document CHEMBL1201862, “PubChem BioAssay data set” (2004):
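A five-concentration, 48-hour dose response in 96-well plates underlies each endpoint, interpolated linearly between surrounding concentrations. GI50 is the concentration that inhibits growth by half.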 Active and inactive are the calls of the source. No stated cut-off is given here; in the data, active = GI50 up to about 1.1 µM and inactive = higher.

Assays:
Assay in all cases: NCI tumour cell line growth inhibition, 48 h
[1] = tested on: CCRF-CEM
[2] = tested on: Malme-3M
[3] = tested on: SNB-19
[4] = tested on: HOP-62
[5] = tested on: EKVX
[6] = tested on: RXF 393
[7] = tested on: SK-MEL-2
[8] = tested on: OVCAR-8
[9] = tested on: SK-OV-3
[10] = tested on: OVCAR-3
[11] = tested on: 786-0
[12] = tested on: SNB-75
[13] = tested on: M14
[14] = tested on: NCI-H522
[15] = tested on: OVCAR-4
[16] = tested on: HL-60
[17] = tested on: HT-29
[18] = tested on: NCI-H460
[19] = tested on: CAKI-1
[20] = tested on: NCI/ADR-RES
[21] = tested on: MOLT-4
[22] = tested on: MDA-MB-435
[23] = tested on: BT-549
[24] = tested on: ACHN
[25] = tested on: HOP-92
[26] = tested on: PC-3
[27] = tested on: SN12C
[28] = tested on: SF-539
[29] = tested on: SF-295
[30] = tested on: DU-145
[31] = tested on: MCF7
[32] = tested on: UO-31
[33] = tested on: MDA-N
[34] = tested on: Hs-578T
[35] = tested on: SF-268
[36] = tested on: HCT-116
[37] = tested on: SW-620
[38] = tested on: K562
[39] = tested on: LOX IMVI
[40] = tested on: SK-MEL-28
[41] = tested on: TK-10
[42] = tested on: HCC 2998
[43] = tested on: NCI-H226
[44] = tested on: UACC-257
[45] = tested on: T47D
[46] = tested on: COLO 205
[47] = tested on: U-251
[48] = tested on: SK-MEL-5
[49] = tested on: A549
[50] = tested on: UACC-62
[51] = tested on: OVCAR-5
[52] = tested on: MDA-MB-231
[53] = tested on: IGROV-1
[54] = tested on: NCI-H23
[55] = tested on: RPMI-8226
[56] = tested on: KM12
[57] = tested on: SR
[58] = tested on: A498
[59] = tested on: HCT-15

How did the GI50 [1] turn out when Cc1ccc2c(O)cc(-c3ccc(Cl)cc3)nc2n1 was run?
Its GI50 is 7.52 µM (inactive).

What about the GI50 [2] of the same compound?
The GI50 was 3.74 µM (inactive).

What about the GI50 [3] of the same compound?
The GI50 was 6.97 µM (inactive).

And the GI50 [4]?
Its GI50 is 9.16 µM (inactive).

And the GI50 [5]?
The GI50 was 18 µM (inactive).

What about the GI50 [6] of the same compound?
The GI50 was 27.2 µM (inactive).

What about the GI50 [7] of the same compound?
Its GI50 is 3.98 µM (inactive).

What about the GI50 [8] of the same compound?
Its GI50 is 9.33 µM (inactive).

And the GI50 [9]?
Its GI50 is 6.64 µM (inactive).

And the GI50 [10]?
The GI50 was 3.1 µM (inactive).

And the GI50 [11]?
The GI50 was 5.38 µM (inactive).

What about the GI50 [12] of the same compound?
Its GI50 is 8.24 µM (inactive).

What about the GI50 [13] of the same compound?
The GI50 was 7.48 µM (inactive).

And the GI50 [14]?
The GI50 was 5.89 µM (inactive).

And the GI50 [15]?
The GI50 was 15.2 µM (inactive).

And the GI50 [16]?
The GI50 was 2.69 µM (inactive).

What about the GI50 [17] of the same compound?
Its GI50 is 3.3 µM (inactive).

What about the GI50 [18] of the same compound?
Its GI50 is 3.69 µM (inactive).

And the GI50 [19]?
The GI50 was 5.57 µM (inactive).

And the GI50 [20]?
The GI50 was 8.89 µM (inactive).

And the GI50 [21]?
The GI50 was 1.2 µM (inactive).

And the GI50 [22]?
The GI50 was 1.32 µM (inactive).

What about the GI50 [23] of the same compound?
The GI50 was 2.38 µM (inactive).

And the GI50 [24]?
Its GI50 is 8.07 µM (inactive).

And the GI50 [25]?
Its GI50 is 13.6 µM (inactive).

And the GI50 [26]?
The GI50 was 2.96 µM (inactive).

What about the GI50 [27] of the same compound?
The GI50 was 4.38 µM (inactive).

What about the GI50 [28] of the same compound?
The GI50 was 5.16 µM (inactive).

What about the GI50 [29] of the same compound?
Its GI50 is 4.59 µM (inactive).

What about the GI50 [30] of the same compound?
The GI50 was 6.05 µM (inactive).

And the GI50 [31]?
The GI50 was 3.35 µM (inactive).

And the GI50 [32]?
Its GI50 is 14.3 µM (inactive).

And the GI50 [33]?
The GI50 was 1.56 µM (inactive).

What about the GI50 [34] of the same compound?
The GI50 was 11.9 µM (inactive).

What about the GI50 [35] of the same compound?
Its GI50 is 27 µM (inactive).

What about the GI50 [36] of the same compound?
Its GI50 is 3.1 µM (inactive).

What about the GI50 [37] of the same compound?
Its GI50 is 5.08 µM (inactive).

What about the GI50 [38] of the same compound?
The GI50 was 2.58 µM (inactive).

What about the GI50 [39] of the same compound?
Its GI50 is 4.93 µM (inactive).

And the GI50 [40]?
The GI50 was 9.66 µM (inactive).

And the GI50 [41]?
Its GI50 is 21.2 µM (inactive).

What about the GI50 [42] of the same compound?
The GI50 was 6.65 µM (inactive).

And the GI50 [43]?
Its GI50 is 14.9 µM (inactive).

What about the GI50 [44] of the same compound?
Its GI50 is 15.6 µM (inactive).

And the GI50 [45]?
Its GI50 is 0.764 µM (active).

What about the GI50 [46] of the same compound?
The GI50 was 1.85 µM (inactive).

And the GI50 [47]?
The GI50 was 5.47 µM (inactive).

And the GI50 [48]?
Its GI50 is 3.47 µM (inactive).

What about the GI50 [49] of the same compound?
The GI50 was 2.73 µM (inactive).

And the GI50 [50]?
The GI50 was 5.15 µM (inactive).

What about the GI50 [51] of the same compound?
The GI50 was > 39.3 µM (inactive).

And the GI50 [52]?
Its GI50 is 5.52 µM (inactive).

What about the GI50 [53] of the same compound?
The GI50 was 5.69 µM (inactive).

What about the GI50 [54] of the same compound?
The GI50 was 27.2 µM (inactive).

And the GI50 [55]?
Its GI50 is 1.87 µM (inactive).

What about the GI50 [56] of the same compound?
Its GI50 is 4.57 µM (inactive).

What about the GI50 [57] of the same compound?
Its GI50 is 4.33 µM (inactive).

And the GI50 [58]?
The GI50 was 9.73 µM (inactive).

And the GI50 [59]?
The GI50 was 3.31 µM.

NC(=O)c1ccc(N)nc1 [6-AMINONICOTINAMIDE] was tested. Which GI50 [1] did it give?
Its GI50 is 12.3 µM (inactive).

What about the GI50 [2] of the same compound?
Its GI50 is 33.2 µM (inactive).

And the GI50 [3]?
Its GI50 is 14.7 µM (inactive).

What about the GI50 [4] of the same compound?
The GI50 was 12 µM (inactive).

What about the GI50 [5] of the same compound?
Its GI50 is 21.7 µM (inactive).

What about the GI50 [6] of the same compound?
Its GI50 is 0.138 µM (active).

And the GI50 [7]?
The GI50 was 124 µM (inactive).

What about the GI50 [8] of the same compound?
Its GI50 is 17.6 µM (inactive).

And the GI50 [9]?
Its GI50 is > 400 µM (inactive).

What about the GI50 [10] of the same compound?
Its GI50 is 67.8 µM (inactive).

What about the GI50 [11] of the same compound?
The GI50 was 3.54 µM (inactive).

And the GI50 [12]?
The GI50 was 15.6 µM (inactive).

And the GI50 [13]?
The GI50 was 6.24 µM (inactive).

And the GI50 [14]?
The GI50 was 99.8 µM (inactive).

And the GI50 [15]?
Its GI50 is 7.01 µM (inactive).

And the GI50 [16]?
Its GI50 is 53.3 µM (inactive).

And the GI50 [17]?
Its GI50 is 3.93 µM (inactive).

And the GI50 [18]?
Its GI50 is 5.16 µM (inactive).

And the GI50 [19]?
Its GI50 is 17.6 µM (inactive).

What about the GI50 [20] of the same compound?
Its GI50 is > 245 µM (inactive).

And the GI50 [21]?
Its GI50 is 38.6 µM (inactive).

And the GI50 [22]?
Its GI50 is 4.66 µM (inactive).

And the GI50 [23]?
Its GI50 is 14.1 µM (inactive).

What about the GI50 [24] of the same compound?
Its GI50 is 54.3 µM (inactive).

And the GI50 [25]?
Its GI50 is 213 µM (inactive).

What about the GI50 [26] of the same compound?
The GI50 was 29.7 µM (inactive).

And the GI50 [27]?
Its GI50 is 15.9 µM (inactive).

And the GI50 [28]?
Its GI50 is 8.43 µM (inactive).

What about the GI50 [29] of the same compound?
The GI50 was 5.07 µM (inactive).

What about the GI50 [30] of the same compound?
The GI50 was 2.3 µM (inactive).

What about the GI50 [31] of the same compound?
The GI50 was 0.389 µM (active).

And the GI50 [32]?
Its GI50 is 29.4 µM (inactive).

What about the GI50 [33] of the same compound?
The GI50 was 14.3 µM (inactive).

And the GI50 [34]?
Its GI50 is 6.17 µM (inactive).

What about the GI50 [35] of the same compound?
Its GI50 is 19.1 µM (inactive).

What about the GI50 [36] of the same compound?
Its GI50 is > 187 µM (inactive).

What about the GI50 [37] of the same compound?
Its GI50 is 82 µM (inactive).

What about the GI50 [38] of the same compound?
Its GI50 is 16.7 µM (inactive).

And the GI50 [39]?
The GI50 was 3.35 µM (inactive).

What about the GI50 [40] of the same compound?
The GI50 was 3.37 µM (inactive).

And the GI50 [41]?
The GI50 was > 400 µM (inactive).

And the GI50 [42]?
Its GI50 is 31.5 µM (inactive).

What about the GI50 [43] of the same compound?
The GI50 was 35.7 µM (inactive).

And the GI50 [44]?
Its GI50 is 0.986 µM (active).

What about the GI50 [45] of the same compound?
Its GI50 is > 255 µM (inactive).

And the GI50 [46]?
Its GI50 is 14.2 µM (inactive).

What about the GI50 [47] of the same compound?
Its GI50 is 1.85 µM (inactive).

What about the GI50 [48] of the same compound?
The GI50 was 0.759 µM (active).

What about the GI50 [49] of the same compound?
Its GI50 is 54.5 µM (inactive).

What about the GI50 [50] of the same compound?
Its GI50 is 16.1 µM (inactive).

And the GI50 [51]?
The GI50 was > 322 µM (inactive).

And the GI50 [52]?
The GI50 was 39.4 µM (inactive).

And the GI50 [53]?
Its GI50 is 108 µM (inactive).

What about the GI50 [54] of the same compound?
The GI50 was 9.98 µM (inactive).

What about the GI50 [55] of the same compound?
The GI50 was 9.75 µM (inactive).

And the GI50 [56]?
Its GI50 is 48.1 µM (inactive).

What about the GI50 [57] of the same compound?
The GI50 was 14.3 µM (inactive).

What about the GI50 [58] of the same compound?
Its GI50 is 14.9 µM (inactive).

What about the GI50 [59] of the same compound?
The GI50 was 17.5 µM.
